Where “and” joins values, the source holds several entries; their conditions need not be identical. Identical values can stand only once.
Biological target: T1, particulate guanylyl cyclase receptor A (pGC-A) (Homo sapiens, UniProt P16066)
T1 construct: expressed in transfected cells; host or cells: HEK293
T1 sequence (P16066 33-1061): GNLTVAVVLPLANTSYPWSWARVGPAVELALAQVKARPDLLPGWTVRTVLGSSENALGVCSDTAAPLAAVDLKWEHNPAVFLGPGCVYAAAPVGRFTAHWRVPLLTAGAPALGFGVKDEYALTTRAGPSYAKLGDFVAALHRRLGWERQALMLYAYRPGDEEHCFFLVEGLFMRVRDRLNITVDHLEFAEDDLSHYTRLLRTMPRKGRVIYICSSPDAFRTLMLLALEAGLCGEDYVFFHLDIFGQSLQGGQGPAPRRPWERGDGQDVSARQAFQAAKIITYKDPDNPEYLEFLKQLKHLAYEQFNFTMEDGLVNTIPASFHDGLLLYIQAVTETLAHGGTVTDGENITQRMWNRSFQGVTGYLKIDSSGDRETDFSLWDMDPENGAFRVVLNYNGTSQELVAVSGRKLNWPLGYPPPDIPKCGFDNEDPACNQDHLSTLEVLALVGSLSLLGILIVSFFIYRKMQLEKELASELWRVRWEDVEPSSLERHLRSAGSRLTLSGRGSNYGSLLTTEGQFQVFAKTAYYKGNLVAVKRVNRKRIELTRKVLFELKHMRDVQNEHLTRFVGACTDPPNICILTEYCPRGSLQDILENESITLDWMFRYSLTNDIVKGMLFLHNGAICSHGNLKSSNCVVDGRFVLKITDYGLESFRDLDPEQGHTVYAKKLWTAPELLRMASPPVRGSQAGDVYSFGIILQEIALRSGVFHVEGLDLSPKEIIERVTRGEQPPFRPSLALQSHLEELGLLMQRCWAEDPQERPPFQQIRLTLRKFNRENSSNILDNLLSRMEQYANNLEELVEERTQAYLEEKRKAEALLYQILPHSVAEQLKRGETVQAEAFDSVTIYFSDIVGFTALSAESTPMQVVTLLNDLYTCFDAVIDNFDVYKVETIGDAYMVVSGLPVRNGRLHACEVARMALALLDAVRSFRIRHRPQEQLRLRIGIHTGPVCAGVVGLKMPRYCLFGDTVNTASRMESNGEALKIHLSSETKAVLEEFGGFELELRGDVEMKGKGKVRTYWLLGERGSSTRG
T1 sequence (P01160 124-151 partner limits assumed): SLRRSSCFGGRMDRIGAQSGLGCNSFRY
Test: cGMP production by HTRF in HEK293 cells overexpressing pGC-A, with ANP
Type: cell-based
Details: for EC50 / Max efficacy: HEK293 cells overexpressing pGC-A; for EC50: test compound plus EC20 concentration of ANP, cGMP by HTRF; for Emax: HEK293, HEK293 cells overexpressing pGC-A, read-out: Max efficacy; for Emax / Max efficacy: cGMP normalized to maximal amount produced by an EC80 concentration of ANP
Text: Assay: Generally, the assay monitors the production of cGMP, the second messenger generated by pGC-A, by Time-Resolved Florescence (HTRF) in HEK293 cells overexpressing the pGC-A. pGC-A suspension cells were stimulated in the presence of the test compound and an EC20 concentration of ANP. The quantity of cGMP was detected by competitive immunoassay using Eu^3+ cryptate-labeled anti-cGMP and d2-labeled cGMP and normalized to maximal amount produced by an EC80 concentration of ANP. Compound EC50 values were determined in the primary assay, in the presence or absence of ANP, to determine mode of action as positive modulators and tested for selectivity in the same assay platform but in HEK cells overexpressing the particulate guanylyl cyclase B receptor (pGC-B), of which CNP is the endogenous ligand.
Assay details: 20 nL of 10 μM test compound in DMSO was added to columns 5-48 of 1536 well white high base screening plates (Corning, New York, NY) cells using 550 ECHO acoustic dispenser (Labcyte, San Jose, CA). Alpha-atrial natriuretic peptide (ANP) (Phoenix Pharmaceutics) was prepared as stock aliquots at 5 μM in PBS with 0.1% BSA. An approximate […] concentration of ANP ([…]) in assay buffer (HBSS containing 5 mM HEPES and 0.05% BSA) was added to columns 3-48 at a volume of 1 μL. Assay buffer only was added to column 1 and assay buffer containing a saturating concentration of ANP (5 nM) was added to column 2. HEK293 cells overexpressing GC-A were resuspended in assay media (OptimMem media containing 2% Heat-inactivated Fetal bovine serum and L-glutamine) at a density of 6×10^5 cells/mL and 2 μL were plated in screening plates (1200 cells/well) in suspension using a Bioraptr 2. Plates were spun at 1000 rpm for 1 min and incubated for 30 min at room temperature. 1.5 μL d2-labeled cGMP followed by 1.5 μL Eu^3+ cryptate-labeled anti-cGMP cGMP detection kit (CiBio; #62GM2PEC) prepared according to manufacturer's protocol were added to all wells using a Bioraptr 2 and TR-FRET signal was detected on an EnVision detector (PerkinElmer). Wells treated with 0.3% DMSO only serve as blank controls (column 1); wells treated with 0.3% DMSO and 5 nM ANP (columns 2) serve as positive controls and wells treated with 0.3% DMSO and […] ANP (columns 3-4) serve as negative controls.

Row | EC50 | Emax | Max efficacy | Structure (SMILES)
1 | > 5000 nM | – | – | CN(C)CCN1CCCC(C(=O)Nc2ncc(-c3ccccc3)s2)C1 (stereo not shown) [compound 169]
2 | > 5000 nM | – | – | CN(C)CCN1CCCC(C(=O)Nc2nc3c(F)cc(F)cc3c(=O)[nH]2)C1 (stereo not shown) [compound 182]
3 | > 5000 nM | – | – | O=C(Nc1nc2c(F)cc(F)cc2c(=O)[nH]1)C1CCCNC1 (stereo not shown) [compound 183]
4 | > 5000 nM | – | – | CN(C)CCN1CCCC(C(=O)Nc2ccc3cccc(F)c3n2)C1 (stereo not shown) [compound 191]
5 | > 10000 nM | – | – | O=C(Nc1nc2c(F)cc(F)cc2s1)c1ccccc1 [compound 199]
6 | > 10000 nM | – | – | O=C(Nc1nc2c(F)cc(F)cc2s1)c1ccccc1Cl [compound 200]
7 | > 10000 nM | – | – | O=C(Nc1nc2c(F)cc(F)cc2s1)c1cccc(Cl)c1 [compound 201]
8 | > 10000 nM | – | – | O=C(Nc1nc2c(F)cc(F)cc2s1)c1ccc(Cl)cc1 [compound 202]
9 | > 10000 nM | – | – | COc1ccccc1C(=O)Nc1nc2c(F)cc(F)cc2s1 [compound 203]
10 | > 10000 nM | – | – | COc1cccc(C(=O)Nc2nc3c(F)cc(F)cc3s2)c1 [compound 204]
11 | > 10000 nM | – | – | COc1ccc(C(=O)Nc2nc3c(F)cc(F)cc3s2)cc1 [compound 205]
12 | > 10000 nM | – | – | O=C(Nc1nc2c(F)cc(F)cc2s1)c1ccc(-c2ccccc2)cc1 [compound 206]
13 | > 5000 nM | – | – | CN(C)CCN[C@@H]1CCC[C@H](C(=O)Nc2nc3c(F)cc(F)cc3s2)C1 [compound 207]
14 | – | 87% | – | N[C@@H]1CCCC(C(=O)Nc2nc3c(F)cc(F)cc3s2)C1 (stereo partly shown) [compound 208]
15 | 700 nM | – | – | N[C@@H]1CCC[C@H](C(=O)Nc2nc3c(F)cc(F)cc3s2)C1 [compound 208]
16 | > 5000 nM | – | – | CN(C)CCN[C@H]1CCC[C@H](C(=O)Nc2nc3c(F)cc(F)cc3s2)C1 [compound 209]
17 | – | 101% | – | CN(C)CCN[C@@H]1CCCCC1C(=O)Nc1nc2c(F)cc(F)cc2s1 (stereo partly shown) [compound 211]
18 | 1530 nM | – | – | CN(C)CCN[C@@H]1CCCC[C@@H]1C(=O)Nc1nc2c(F)cc(F)cc2s1 [compound 211]
19 | 900 nM | 78% | – | CN(C)CCC1CCCC(C(=O)Nc2nc3c(Cl)cc(F)cc3s2)C1 (stereo not shown) [compound 215]
20 | > 10000 nM | – | – | CN(C)CCN1CCCC(C(=O)Nc2nc3ccccc3s2)C1 (stereo not shown) [compound 216]
21 | > 10000 nM | – | – | CN(C)CCN1CCCC(NC(=O)c2nc3c(F)cc(F)cc3s2)C1 (stereo not shown) [compound 217]
22 | 1500 nM | 91% | – | CN(C)C1CCN(CC(=O)Nc2nc3c(F)cc(F)cc3s2)CC1 [compound 219]
23 | > 5000 nM | – | – | CN(C)CCC1CCN(c2nc3c(F)cc(F)cc3s2)C(=O)C1 (stereo not shown) [compound 220]
24 | 1010 nM | 58% | – | O=C1CCC(C(=O)Nc2nc3c(F)cc(F)cc3s2)CN1 (stereo not shown) [compound 222]
25 | 5800 nM | 105% | – | CN(C)CCN1CCCC(C(=O)Nc2nc3c(F)cccc3s2)C1 (stereo not shown) [compound 224]
26 | 360 nM | 97% | – | CN(C)CCN1CCCC(C(=O)Nc2nc3c(Cl)cccc3s2)C1 (stereo not shown) [compound 225]
27 | 160 nM and 900 nM | – | 62% and 87% | CN(C)CCN1CCCC(C(=O)Nc2nc3c(Br)cccc3s2)C1 (stereo not shown) [compound 226]

Row | EC50 | Emax | Max efficacy | Structure (SMILES)
28 | 1500 nM | 93% | – | CN(C)CCN1CCC(C(=O)Nc2nc3c(F)cc(F)cc3s2)CC1 [compound 227]
29 | > 5000 nM | – | – | CN(C)CCN1CCCC(C)(C(=O)Nc2nc3c(F)cc(F)cc3s2)C1 (stereo not shown) [compound 228]
30 | 1900 nM | 91% | – | CN(C)C(=O)CN1CCCC(C(=O)Nc2nc3c(F)cc(F)cc3s2)C1 (stereo not shown) [compound 229]
31 | 700 nM | 105% | – | CN(C)CC(=O)N1CCCC(C(=O)Nc2nc3c(F)cc(F)cc3s2)C1 (stereo not shown) [compound 230]
32 | 900 nM | 98% | – | CN(C)CCCN1CCCC(C(=O)Nc2nc3c(F)cc(F)cc3s2)C1 (stereo not shown) [compound 231]
33 | 2100 nM | 82% | – | CN(C)CCN1CCCC(C(=O)N(C)c2nc3c(F)cc(F)cc3s2)C1 (stereo not shown) [compound 232]
34 | > 5000 nM | – | – | CN(C)CCN1CCCC(C(=O)Nc2nc3c(F)ccc(F)c3s2)C1 (stereo not shown) [compound 234]
35 | 1400 nM and 2600 nM | 113% | 113, 113% | CN(C)CCN1CCCC(C(=O)Nc2nc3c(F)cc(Cl)cc3s2)C1 (stereo not shown) [compound 235]
36 | 700 nM | 85% | – | NCCN1CCCC(C(=O)Nc2nc3c(F)cc(F)cc3s2)C1 (stereo not shown) [compound 236]
37 | – | – | 74% and 51% | CNCCN1CCCC(C(=O)Nc2nc3c(F)cc(F)cc3s2)C1 (stereo not shown) [compound 237]
38 | 210 nM and 320 nM | 86% | 92% | CCN(CC)CCN1CCCC(C(=O)Nc2nc3c(F)cc(F)cc3s2)C1 (stereo not shown) [compound 238]
39 | 220 nM and 300 nM | 87% | 94% and 77% | O=C(Nc1nc2c(F)cc(F)cc2s1)C1CCCN(CCN2CCCC2)C1 (stereo not shown) [compound 239]
40 | 700 nM | 105% | – | O=C(Nc1nc2c(F)cc(F)cc2s1)C1CCCN(CCNCCO)C1 (stereo not shown) [compound 240]
41 | 1600 nM | 93% | – | O=C(Nc1nc2c(F)cc(F)cc2s1)C1CCCN(CCN2CCOC2=O)C1 (stereo not shown) [compound 241]
42 | 700 nM | 105% | – | CN(CCO)CCN1CCCC(C(=O)Nc2nc3c(F)cc(F)cc3s2)C1 (stereo not shown) [compound 242]
43 | 470 nM and 200 nM | 91% | 77% | O=C(Nc1nc2c(F)cc(F)cc2s1)C1CCCN(CCN2CCCCC2)C1 (stereo not shown) [compound 243]
44 | 280 nM | 94% | – | O=C(Nc1nc2c(F)cc(F)cc2s1)C1CCCN(CCN2CCOCC2)C1 (stereo not shown) [compound 244]
45 | 4500 nM and 1800 nM | 102% | – | O=C(Nc1nc2c(F)cc(F)cc2s1)C1CCCN(CCN2CCCC2=O)C1 (stereo not shown) [compound 245]
46 | > 5000 nM | – | – | O=C(Nc1nc2c(F)cc(F)cc2o1)C1CCCNC1 (stereo not shown) [compound 248]
47 | 1400 nM | 60% | – | CN(C)CCN1CCCC(C(=O)Nc2nc3c(Cl)c(Cl)ccc3s2)C1 (stereo not shown) [compound 250]
48 | > 5000 nM | – | – | CN(C)CCN1CCCC(C(=O)Nc2nc3c(Cl)cc(Cl)cc3s2)C1 (stereo not shown) [compound 251]
49 | > 5000 nM | – | – | CN(C)CCN1CCCC(C(=O)Nc2nc3c(Cl)ccc(Cl)c3s2)C1 (stereo not shown) [compound 252]
50 | 50 nM | 72% | – | CN(C)CCN1CCCC(C(=O)Nc2nc3c(Cl)cc(F)cc3s2)C1 (stereo not shown) [compound 253]
51 | 600 nM | 86% | – | CN(C)C(=O)N1CCCC(C(=O)Nc2nc3c(F)cc(F)cc3s2)C1 (stereo not shown) [compound 255]
52 | 1300 nM | 74% | – | O=C(Nc1nc2c(F)cc(F)cc2s1)C1CCCN(CCN2CCCC2C(=O)O)C1 (stereo not shown) [compound 259]
53 | > 5000 nM | – | – | O=C(O)CNCCN1CCCC(C(=O)Nc2nc3c(F)cc(F)cc3s2)C1 (stereo not shown) [compound 260]

— patent publication US20250092030A1, “ENHANCERS OF PARTICULATE GUANYLYL CYCLASE RECEPTOR A” (Mayo Foundation for Medical Education and Research, priority 2023, published 2025)
